Reference: ChEMBL document CHEMBL5316264, “Identification of N- and C-3-Modified Laudanosoline Derivatives as Novel Influenza PAN Endonuclease Inhibitors” (J Med Chem, 2023)

Target: Polymerase acidic protein (Influenza A virus (A/Puerto Rico/8/1934(H1N1)), UniProt P03433)
Conditions: hek293t

Question: With `O=C1c2c(O)c(=O)ccn2N([C@@H]2c3ccccc3SCc3c2ccc(F)c3F)[C@@H]2COCCN12` [BALOXAVIR] as the compound, how does the IC50 read?
Answer: 300 µM

Question: With `CCCOC(=O)[C@@H]1Cc2cc(O)c(O)cc2[C@H](Cc2ccc(O)c(O)c2)N1C(=O)c1ccccc1Cl` as the compound, how does the IC50 read?
Answer: 10.8 µM
